Measured values taken from patent US20020010154A1, “Compositions comprising cyclodextrin” (priority 2000, published 2002).
Where a name gives a salt, the structure may show the parent alone.

Legend:
[1] = Complexation constant of phenolphthalein with beta-cyclodextrin (absorbance at 550 nm); format: physicochemical; conditions: room temperature, 4.0×10^−3 mol/l Na2CO3, pH 10.5
Excerpt: A spectral displacement method with phenolphthalein is used to determine the complexation constant between cyclodextrin and a given material, especially for surfactants. This method of determining complexation constants with cyclodextrins is described in detail in the following references, which are hereby incorporated herein by reference: Sasaki, K. J., Christian, S. D., and Tucker, E. E., “Study of the Stability of 1:1 Complexes Between Aliphatic Alcohols and b-Cyclodextrins in Aqueous Solution,” Fluid Phase Equilibria, Vol. 49, (Amsterdam, Elsevier Science Publishers, 1989), pp. 281-89. Further information regarding spectral displacement methods can be found in other references, e.g. in Wilson, L. D., Siddall, S. R., and Verrall R. E., “A Spectral Displacement Study of the Binding Constants of Cyclodextrin-Hydrocarbon and—Fluorocarbon Surfactant Inclusion Complexes,” Canadian Journal of Chemistry, Vol. 75, (NRC Canada 1997), pp. 927-933, which is incorporated by reference herein. […]
The complexation constant of a given material with cyclodextrin is obtained by an absorbance measurement in the visible region at 550 nm that is performed with a spectrophotometer at room temperature. […] Complexation constants of cyclodextrin-compatible and/or cyclodextrin-incompatible materials are determined with using the free, uncomplexed phenolphthalein concentration obtained by absorbance at 550 nm.

[2] = CD interaction of perfume components; format: physicochemical; parameters: key: cyclodextrin-compatible perfume materials (i.e. having weak CD interaction); cyclodextrin-incompatible enduring (hydrophobic) perfume materials (i.e. having significant or strong CD interaction); cyclodextrin-incompatible enduring (hydrophobic) perfume materials (i.e. having significant or strong CD interaction); conditions: perfume component with cyclodextrin
Excerpt: The following table illustrates the molecular weight property of some of the cyclodextrin-incompatible enduring (hydrophobic) perfume materials (i.e. having significant or strong CD interaction) versus cyclodextrin-compatible perfume materials (i.e. having weak CD interaction).

[3] = Complexation constant with cyclodextrin, spectral displacement method with phenolphthalein; format: physicochemical; conditions: no unit in table, complexation constants in M^−1
Excerpt: A spectral displacement method with phenolphthalein is used to determine the complexation constant between cyclodextrin and a given material, especially for surfactants. This method of determining complexation constants with cyclodextrins is described in detail in the following references, which are hereby incorporated herein by reference: Sasaki, K. J., Christian, S. D., and Tucker, E. E., “Study of the Stability of 1:1 Complexes Between Aliphatic Alcohols and b-Cyclodextrins in Aqueous Solution,” Fluid Phase Equilibria, Vol. 49, (Amsterdam, Elsevier Science Publishers, 1989), pp. 281-89. Further information regarding spectral displacement methods can be found in other references, e.g. in Wilson, L. D., Siddall, S. R., and Verrall R. E., “A Spectral Displacement Study of the Binding Constants of Cyclodextrin-Hydrocarbon and—Fluorocarbon Surfactant Inclusion Complexes,” Canadian Journal of Chemistry, Vol. 75, (NRC Canada 1997), pp. 927-933, which is incorporated by reference herein.
The test method is based on the fact that phenolphthalein will complex with cyclodextrin and in complexed form is colorless. However, it has a strong color at pH 10.5 when in non-complexed form. Other, cyclodextrin-incompatible, materials themselves complex with the cyclodextrin and prevent the phenolphthalein from doing so. Thus the higher the complexation constant of the other component with cyclodextrin, the more non-complexed phenolphthalein will be present and the stronger the observed color.
The complexation constant of a given material with cyclodextrin is obtained by an absorbance measurement in the visible region at 550 nm that is performed with a spectrophotometer at room temperature. All solutions are prepared in 4.0×10^−3 mol/l Na2CO3 solution to maintain a constant pH. The concentration of phenolphthalein is kept constant at 3.0×10^−5 mol/l. Cyclodextrin concentration and surfactant concentration are varied. Here, optimum parameter values for absorption coefficient of phenolphthalein at 550 nm is 33,000 M^−1 cm^−1, and the complexation constants of phenolphthalein with cyclodextrin and cyclodextrin derivatives are preliminary obtained. […] Complexation constants of cyclodextrin-compatible and/or cyclodextrin-incompatible materials are determined with using the free, uncomplexed phenolphthalein concentration obtained by absorbance at 550 nm.

[4] = cited from earlier work

| Molecule | CD interaction [2] | further results |
| --- | --- | --- |
| O=C1OC(c2ccc(O)cc2)(c2ccc(O)cc2)c2ccccc21 [phenolphthalein] | – | complexation constant of phenolphthalein with beta-cyclodextrin [1]: about 21,000 M^−1 |
| CCCCCCOC(=O)c1ccccc1O [Hexyl Salicylate] | weak | – |
| CC1COCc2cc3c(cc21)C(C)(C)C(C)C3(C)C (centres unmarked) [Galaxolide] | weak | – |
| CCCCCCCCCCCCOS(=O)(=O)[O-].[Na+] [Sodium dodecyl sulfate] | – | Complexation Constant (K) [3]: about 22000 |
| [H]/N=C(\N/C(=N/[H])NCCCCCCNC(=N)NC(=N)Nc1ccc(Cl)cc1)Nc1ccc(Cl)cc1 [diacetate salt, 1,1′-hexamethylene bis(5-(p-chlorophenyl)biguanide)] | – | solubility in water [4]: about 1.8% |
| CCC(=O)OC1CC2CC1C1CC=CC21 (centres unmarked) [Frutene] | strong | – |
| CC(=O)C(C)=C(C)C(C)C(C)(C)C (centres unmarked) [Koavone] | strong | – |
| CCCCCC1C(=O)CCC1CC(=O)OC (centres unmarked) [Methyl Dihydro Jasmonate] | weak | – |
| CC(C=O)Cc1ccc(C(C)C)cc1 (centres unmarked) [Cymal] | strong | – |
| a-Me Ionone | strong | – |
| [H]/N=C(\N/C(=N/[H])NCCCCCCNC(=N)NC(=N)Nc1ccc(Cl)cc1)Nc1ccc(Cl)cc1 [digluconate salt, 1,1′-hexamethylene bis(5-(p-chlorophenyl)biguanide)] | – | solubility in water [4]: about 70% |
| CC(=O)/C=C/C1C(C)=CCCC1(C)C (centres unmarked) [a-ionone] | strong | – |
| CC(C)(O)CCCC1=CCC(C=O)CC1 (centres unmarked) [Lyral] | weak | – |
| CC(=O)OC1CCC(C(C)(C)C)CC1 (centres unmarked) [Vertenex, para-tert-butylcyclohexyl acetate] | strong | – |
| CCCCCCCCCCCC(=O)[O-].[Na+] [Sodium laurate] | – | Complexation Constant (K) [3]: about 16000 |
| CC(=O)OC(C)(C)C1CC=C(C)CC1 (centres unmarked) [Terpinyl Acetate] | significant | – |
| CCC(C)(O)CCCC(C)C (centres unmarked) [Tetrahydrolinalol] | significant | – |
| CCCCCCC(C=O)=Cc1ccccc1 [Hexyl cinnamic Aldehyde] | weak | – |
| CC(=O)C1(C)CC2=C(CCCC2(C)C)CC1C (centres unmarked) [Iso-E Super] | weak | – |
| Laureth-6 | – | Complexation Constant (K) [3]: about 10000 |
| O=C(Cc1ccccc1)OCCc1ccccc1 [Phenyl-Ethyl-Phenyl Acetate] | weak | – |
| CC(=O)OC1CC2CC1C1CC=CC21 (centres unmarked) [Flor Acetate] | strong | – |
| CCCCCCCCCCCCCC(=O)OC(C)C [Iso-propyl Myristate] | weak | – |
| CC(C=O)Cc1ccc(C(C)(C)C)cc1 (centres unmarked) [Lilial, p-t-bucinal] | strong | – |
| CCOC(=O)c1ccccc1C(=O)OCC [Diethyl Phthalate] | weak | – |
| Lauramine oxide | – | Complexation Constant (K) [3]: about 7500 |
